One data set addresses T1, CYP2C19 (Homo sapiens, UniProt P33261).
T1 construct: human liver microsomes were used as the CYP450 enzyme source; from tissue; host or cells: human liver microsomes
As to the kind of experiment: Inhibition of hepatic drug-metabolizing enzymes in human liver microsomes. The data set is classed as in vitro ADME. The settings on record: human liver microsomes; read-out: Inhibitory activity on drug-metabolizing enzymes (IC50, µM) CYP2C19. From the text: (§1) The main site of drug metabolism is the liver, and the main component of the mixed-function oxidase system present in the liver is the CYP450 enzyme. This enzyme system causes most clinically observed drug-drug interactions, which in turn leads to an increased incidence of adverse drug reactions. CYP450 is a group of supergene family composed of many isozymes, wherein CYP3A4 acts as a major metabolizing enzyme and is involved in the metabolism of nearly half of clinically used drugs. Similarly, CYP2C9 and CYP2C19 also act as important metabolizing enzymes and are involved in the metabolism of various drugs clinically. Therefore, evaluating the risk of drug-drug interactions by testing the inhibitory activity of compounds on CYP450 enzymes at an early stage can improve the safety of medication use.
(§2) In the present disclosure, human liver microsomes were used as the CYP450 enzyme source. The specific probe substrates for each CYP isoenzyme (wherein CYP3A4 used two substrates, midazolam and testosterone, denoted as CYP3A4-M and CYP3A4-T respectively) were incubated with a series of concentrations of the test compound in the presence of the cofactor NADPH. The production amount of metabolites of probe substrates in the incubation system was determined by LC-MS/MS, and the IC50 values of the test compound against each CYP450 enzyme subtype were calculated to evaluate its inhibitory effect on each CYP450 enzyme subtype. During the experiment, 49 µL of PBS, 50 µL of probe substrate, and 50 µL of human liver microsome working solution were sequentially added to the incubation system, followed by the addition of 1 µL of the test compound working solution at each concentration, and the mixture was mixed well. After pre-incubation at 37°C for 5 min, 50 µL of NADPH was added to initiate the reaction. After incubation for the corresponding time, an appropriate amount of ice-cold acetonitrile containing an internal standard was added to terminate the reaction. The mixture was vortexed to mix well, centrifuged, and the supernatant was taken. The supernatant was injected into LC-MS/MS to determine the production amount of metabolites of the probe substrate. Taking the enzyme activity at the 0-concentration point (characterized by the production amount of metabolites) as 100%, the percentage of residual enzyme activity of metabolites at different concentrations of the test compound was calculated. IC50 was calculated by the residual enzyme activity using Graphpad Prism software.
(Liver microsomes are vesicles of endoplasmic reticulum, rich in cytochrome P450 enzymes.)

The target of a further data set is T2, CYP2C9 (Homo sapiens, UniProt P11712).
T2 construct: human liver microsomes were used as the CYP450 enzyme source; from tissue; host or cells: human liver microsomes
T2 sequence (P11712 whole entry): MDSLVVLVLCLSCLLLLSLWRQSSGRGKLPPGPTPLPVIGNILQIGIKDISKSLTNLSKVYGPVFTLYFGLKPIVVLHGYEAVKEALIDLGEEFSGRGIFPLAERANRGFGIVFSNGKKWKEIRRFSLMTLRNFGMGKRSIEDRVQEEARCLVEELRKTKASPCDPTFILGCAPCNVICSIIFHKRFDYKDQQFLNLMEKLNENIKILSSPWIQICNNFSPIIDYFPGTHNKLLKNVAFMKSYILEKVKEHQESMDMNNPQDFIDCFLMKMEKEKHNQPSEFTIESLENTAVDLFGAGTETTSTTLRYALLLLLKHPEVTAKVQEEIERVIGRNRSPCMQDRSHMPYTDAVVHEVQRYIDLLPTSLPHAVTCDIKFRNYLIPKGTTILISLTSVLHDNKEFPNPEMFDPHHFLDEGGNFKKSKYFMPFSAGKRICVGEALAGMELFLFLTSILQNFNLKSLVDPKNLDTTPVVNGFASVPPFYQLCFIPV
The data set is described as above. The data set is classed as in vitro ADME. The settings on record: human liver microsomes; read-out: Inhibitory activity on drug-metabolizing enzymes (IC50, µM) CYP2C9.
Excerpt: as §1, §2

For another data set, the target named is T3, CYP3A4 (Homo sapiens, UniProt P08684).
T3 construct: human liver microsomes were used as the CYP450 enzyme source; from tissue; host or cells: human liver microsomes
T3 sequence (P08684 whole entry): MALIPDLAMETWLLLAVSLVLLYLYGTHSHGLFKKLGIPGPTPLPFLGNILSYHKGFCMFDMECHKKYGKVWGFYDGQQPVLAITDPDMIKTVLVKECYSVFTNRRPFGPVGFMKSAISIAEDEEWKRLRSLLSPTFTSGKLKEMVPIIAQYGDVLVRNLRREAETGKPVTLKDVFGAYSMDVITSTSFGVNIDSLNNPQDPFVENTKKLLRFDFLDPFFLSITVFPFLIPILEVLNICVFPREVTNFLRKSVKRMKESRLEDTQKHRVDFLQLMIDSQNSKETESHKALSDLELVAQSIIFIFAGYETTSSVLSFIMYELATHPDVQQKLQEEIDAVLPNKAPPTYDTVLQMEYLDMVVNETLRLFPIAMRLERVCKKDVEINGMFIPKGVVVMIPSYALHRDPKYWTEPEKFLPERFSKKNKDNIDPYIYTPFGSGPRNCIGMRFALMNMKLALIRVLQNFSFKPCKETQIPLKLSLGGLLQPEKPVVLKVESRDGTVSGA
Nature of the data set: Inhibition of hepatic drug-metabolizing enzymes in human liver microsomes (substrates midazolam and testosterone). The class given is in vitro ADME.
Excerpt: as §1, §2

The next data set concerns the target T4, SOS1 (Homo sapiens, UniProt Q07889).
T4 sequence (Q07889 1-1333): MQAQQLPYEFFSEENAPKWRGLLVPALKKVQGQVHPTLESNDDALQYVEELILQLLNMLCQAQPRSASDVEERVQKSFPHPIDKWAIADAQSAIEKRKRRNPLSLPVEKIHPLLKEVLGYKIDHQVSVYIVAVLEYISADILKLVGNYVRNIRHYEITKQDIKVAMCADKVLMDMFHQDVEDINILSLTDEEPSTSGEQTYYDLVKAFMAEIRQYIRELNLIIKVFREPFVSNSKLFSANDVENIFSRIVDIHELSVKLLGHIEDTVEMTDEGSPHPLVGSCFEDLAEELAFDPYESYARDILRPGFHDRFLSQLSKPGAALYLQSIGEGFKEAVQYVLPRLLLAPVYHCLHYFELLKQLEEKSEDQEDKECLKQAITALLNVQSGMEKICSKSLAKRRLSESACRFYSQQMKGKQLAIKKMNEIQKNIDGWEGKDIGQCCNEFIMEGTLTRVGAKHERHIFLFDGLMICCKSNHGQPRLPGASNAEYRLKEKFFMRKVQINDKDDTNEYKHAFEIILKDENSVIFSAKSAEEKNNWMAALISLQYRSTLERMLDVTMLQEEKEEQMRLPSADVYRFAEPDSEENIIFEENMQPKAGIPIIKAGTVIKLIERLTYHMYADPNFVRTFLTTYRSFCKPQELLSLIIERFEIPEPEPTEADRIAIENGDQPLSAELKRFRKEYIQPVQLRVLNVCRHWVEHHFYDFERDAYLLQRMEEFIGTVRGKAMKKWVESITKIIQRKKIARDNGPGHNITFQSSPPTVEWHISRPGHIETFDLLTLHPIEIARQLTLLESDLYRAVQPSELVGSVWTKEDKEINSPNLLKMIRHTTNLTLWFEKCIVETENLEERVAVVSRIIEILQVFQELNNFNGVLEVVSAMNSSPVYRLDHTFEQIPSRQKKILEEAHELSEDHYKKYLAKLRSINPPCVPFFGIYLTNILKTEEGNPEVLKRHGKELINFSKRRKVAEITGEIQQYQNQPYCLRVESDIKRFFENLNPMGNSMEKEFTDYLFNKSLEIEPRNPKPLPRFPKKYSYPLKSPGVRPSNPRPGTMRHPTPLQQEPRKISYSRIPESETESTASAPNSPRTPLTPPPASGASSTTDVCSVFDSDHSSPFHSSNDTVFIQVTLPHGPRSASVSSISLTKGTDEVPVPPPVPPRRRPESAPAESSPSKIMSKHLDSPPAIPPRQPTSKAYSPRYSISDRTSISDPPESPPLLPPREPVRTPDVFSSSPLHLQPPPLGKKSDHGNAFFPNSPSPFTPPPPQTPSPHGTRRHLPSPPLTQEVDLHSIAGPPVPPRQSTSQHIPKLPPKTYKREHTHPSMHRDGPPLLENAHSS
As to the kind of experiment: biochemical.

A short description of data set [1]: Rat liver microsomal metabolic stability. The class given is in vitro ADME. The settings on record: rat liver microsomes; for half-life at 1 µM: NADPH, 37°C; for CLint scaled at 1 µM: calculated from T1/2, fu defaulted to 1, read-out: CL(liver). In outline:
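Rat liver microsomes (1 mg/mL working solution) with test compound (working solution 100 µM) were pre-incubated 5 min at 37 °C, then started with NADPH (4.0 mM working solution). Residual compound measured by LC-MS/MS over time. T1/2 taken from first-order decay, scaled to CLint and hepatic CL with fu = 1.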

In data set [2] the test system is NCI-H358 non-small cell lung cancer cells. As to the kind of experiment: Inhibition of NCI-H358 cell proliferation (CellTiter-Glo 3D, 7 days). The settings on record: Homo sapiens, NCI-H358, 168 h, 3D microspheres, read-out: Inhibitory activity against NCI-H358 cell proliferation (IC50). The data set is classed as cell-based. The procedure: The number of viable cells were detected by CellTiter-Glo 3D® reagent, thereby evaluating the inhibitory effect of compounds on cell proliferation. NCI-H358 non-small cell lung cancer cells (Nanjing cobioer) in the exponential growth phase were digested with trypsin-EDTA, and seeded into 96-well ultra-low attachment microplates at 100 µL per well with a density of 2000 cells/well. The cells were cultured overnight at 37°C with 5% CO2 to form microspheres. The test compounds were serially diluted 5-fold with DMSO to obtain 8 concentration gradient dilutions, then diluted with RPMI-1640 (10% FBS) cell culture medium respectively to obtain compound working solutions (2×). 100 µL per well was added to the cell supernatant, and the culture was continued for 7 days under the conditions of 37°C and 5% CO2. The well plate was removed, and 100 µL of CellTiter-Glo 3D® reagent was added. After lysis at room temperature for 10-30 minutes, 70 µL of the lysate was aspirated and transferred to a white opaque 384-well plate.
The inhibition rate was calculated by the following formula: [formula] Note: The negative control refers to the group without inhibitor, and the blank refers to the group without cells.
The inhibitory activities of some Example compounds and comparative compounds against NCI-H358 cell proliferation are shown in Table 2. Table 2. Inhibitory activity of some Example compounds against NCI-H358 cell proliferation

Where [3] appears, read: substrate midazolam, read-out: Inhibitory activity on drug-metabolizing enzymes (IC50, µM) CYP3A4-M.
Where [4] appears, read: substrate testosterone, read-out: Inhibitory activity on drug-metabolizing enzymes (IC50, µM) CYP3A4-T.

Structures are written as SMILES. Like-named read-outs stand apart in the source and are kept apart here. Where only a bound is given, the exact number is not on record here.

T1 sequence (P33261 whole entry): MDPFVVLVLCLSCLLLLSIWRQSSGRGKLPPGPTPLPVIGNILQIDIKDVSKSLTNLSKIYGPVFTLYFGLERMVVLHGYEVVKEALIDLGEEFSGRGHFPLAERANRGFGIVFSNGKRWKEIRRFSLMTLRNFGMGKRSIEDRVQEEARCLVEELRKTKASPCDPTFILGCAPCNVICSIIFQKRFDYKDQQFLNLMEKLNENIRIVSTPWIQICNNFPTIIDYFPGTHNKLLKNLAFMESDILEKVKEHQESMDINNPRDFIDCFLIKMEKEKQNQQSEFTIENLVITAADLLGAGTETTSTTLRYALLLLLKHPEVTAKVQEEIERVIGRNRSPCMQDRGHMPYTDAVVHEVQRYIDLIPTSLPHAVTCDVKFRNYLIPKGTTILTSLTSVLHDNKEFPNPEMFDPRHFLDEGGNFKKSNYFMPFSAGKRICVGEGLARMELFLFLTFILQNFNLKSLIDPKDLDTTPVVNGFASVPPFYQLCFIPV

Consider `CNc1nnc(N[C@H](C)c2cccc(C(F)F)c2F)c2cn(C3CC3)c(=O)cc12` [Example 13, (R)-6-cyclopropyl-4-((1-(3-(difluoromethyl)-2-fluorophenyl)ethyl)amino)-1-(methylamino)pyrid o[3,4-d]pyridazin-7(6H)-one], for which the IC50 is over 10 µM at CYP2C19; over 10 µM at CYP2C9; over 10 µM at CYP3A4 (setting [3]); over 10 µM on CYP3A4 (setting [4]); 4.6 nM against SOS1. The compound further showed a half-life at 1 µM in data set [1] of 238 min. Besides, the CLint scaled at 1 µM in data set [1] was 8.8 mL/min/kg.

For the compound `C[C@@H](Nc1nnc(N)c2cc(=O)n(C3(C)CC3)cc12)c1cccc(C(F)F)c1F.O=CO` [Example 74, (R)-1-amino-4-((1-(3-(difluoromethyl)-2-fluorophenyl)ethyl)amino)-6-(1-methylcyclopropyl) pyrido[3,4-d]pyridazin-7(6H)-one formate], the IC50 at CYP2C19 is over 10 µM; on CYP2C9, over 10 µM; at CYP3A4 (setting [3]), over 10 µM; on CYP3A4 (setting [4]), over 10 µM; at SOS1, 4.6 nM. The compound also yielded a half-life at 1 µM in data set [1] of over 300 min. In data set [1], the CLint scaled at 1 µM was under 7.23 mL/min/kg.

In the case of `CCNc1nnc(N[C@H](C)c2cccc(C(F)(F)F)c2C)c2cn(C3(C)CC3)c(=O)cc12` [Example 97, (R)-1-(ethylamino)-4-((1-(2-methyl-3-(trifluoromethyl)phenyl)ethyl)amino)-6-(1-methylcyclopropyl) pyrido[3,4-d]pyridazin-7(6H)-one], the IC50 in data set [2] turned out to be 36.8 nM. Further, the IC50 at SOS1 amounted to 5.1 nM. In addition, in data set [1], the half-life at 1 µM came out at 105 min and the CLint scaled at 1 µM is 16.7 mL/min/kg.

For the compound `CCN1CCN(c2nnc(N[C@H](C)c3cccc(C(F)(F)F)c3C)c3cn(C4(C)CC4)c(=O)cc23)CC1` [Example 104, (R)-1-(4-ethylpiperazin-1-yl)-4-((1-(2-methyl-3-(trifluoromethyl)phenyl)ethyl)amino)-6-(1-methylcyclopropyl) pyrido[3,4-d]pyridazin-7(6H)-one], the IC50 in data set [2] was found to be 29.7 nM; on SOS1, 7.5 nM. In addition, the half-life at 1 µM in data set [1] stood at 156 min. In data set [1], the CLint scaled at 1 µM is 12.4 mL/min/kg.

Consider `C[C@@H](Nc1nnc(N2CCN(C(C)(C)C)CC2)c2cc(=O)n(C3CC(F)(F)C3)cc12)c1cccc(C(F)F)c1F` [Example 108, (R)-6-(3,3-difluorocyclobutyl)-4-((1-(3-(difluoromethyl)-2-fluorophenyl)ethyl)amino)-1-(4-(tert-butyl)piperazin-1-yl)pyrido[3,4-d]pyridazin-7(6H)-one], for which the IC50 in data set [2] came to 27 nM. Also, the IC50 against SOS1 was 5.5 nM. Moreover, in data set [1], the half-life at 1 µM was found to be 134 min and the CLint scaled at 1 µM is 13.9 mL/min/kg.

In the case of `CC(C)N1CCN(c2nnc(N[C@H](C)c3cccc(C(F)F)c3F)c3cn(C4CCC4)c(=O)cc23)CC1` [Example 113, (R)-6-cyclobutyl-4-((1-(3-(difluoromethyl)-2-fluorophenyl)ethyl)amino)-1-(4-isopropylpiperazin-1-yl)pyrido[3,4-d]pyridazin-7(6H)-one], the IC50 is 24.2 nM in data set [2] and 4.5 nM against SOS1. In addition, the half-life at 1 µM in data set [1] was determined as 135 min. The CLint scaled at 1 µM in data set [1] is 13.9 mL/min/kg.

As to `C[C@@H](Nc1nnc(N2CCN(CC3CC3)CC2)c2cc(=O)n(C3(C)CC3)cc12)c1cccc(C(F)F)c1F` [Example 219, (R)-1-(4-(cyclopropylmethyl)piperazin-1-yl)-4-((1-(3-(difluoromethyl)-2-fluorophenyl)ethyl)amino)-6-(1-methylcyclopropyl) pyrido[3,4-d]pyridazin-7(6H)-one], the IC50 in data set [2] was determined as 25 nM. This compound had an IC50 on SOS1 of 4.7 nM. In addition, in data set [1], the half-life at 1 µM turned out to be 168 min and the CLint scaled at 1 µM was 11.7 mL/min/kg.

Take `C[C@@H](Nc1nnc(N2CCN(C3CCC3)CC2)c2cc(=O)n(C3(C)CC3)cc12)c1cccc(C(F)F)c1F` [Example 220, (R)-1-(4-cyclobutylpiperazin-1-yl)-4-((1-(3-(difluoromethyl)-2-fluorophenyl)ethyl)amino)-6-(1-methylcyclopropyl) pyrido[3,4-d]pyridazin-7(6H)-one]: in data set [2], the IC50 was 56.7 nM. In addition, at SOS1, the IC50 is 4 nM. Besides, in data set [1], the half-life at 1 µM stood at 80.4 min and the CLint scaled at 1 µM was 19.9 mL/min/kg.

Turning to `C[C@@H](Nc1nnc(N2CCN(C3CCCC3)CC2)c2cc(=O)n(C3(C)CC3)cc12)c1cccc(C(F)F)c1F` [Example 221, (R)-1-(4-cyclopentylpiperazin-1-yl)-4-((1-(3-(difluoromethyl)-2-fluorophenyl)ethyl)amino)-6-(1-methylcyclopropyl) pyrido[3,4-d]pyridazin-7(6H)-one], the IC50 in data set [2] is 53.6 nM. The compound further had an IC50 on SOS1 of 5 nM. Also, in data set [1], the half-life at 1 µM worked out at 67.3 min and the CLint scaled at 1 µM was 22.2 mL/min/kg.

Usually half-life stands for the time needed for the level to fall by half in the phase considered. The low end stands for rapid decline, the high end for slow decline.

These data come from patent publication EP4722213A1, “NITROGEN-CONTAINING FUNCTIONAL GROUP-SUBSTITUTED PYRIDAZINOPYRIDONE DERIVATIVE AND USE THEREOF” (Sichuan Huiyu Pharmaceutical Co., Ltd., priority 2023, dated 2024).
